Results as given in patent US20190336489A1, “NON PEPTIDE HETEROBIVALENT MOLECULES FOR TREATING INFLAMMATORY DISEASES” (GLAXOSMITHKLINE INTELLECTUAL PROPERTY DEVELOPMENT LIMITED, priority 2017, published 2019).
Read-outs that look alike come from different tables or passages of the source. Marks after values point to notes of the source that are not given here.

Target: T1, CCR2 (Homo sapiens, UniProt P41597)
T1 construct: expressed in transfected cells; host or cells: CHOK1
Experiment: Antibody Dependent Cellular Cytotoxicity (ADCC) reporter assay, CCR2 target cells
Assay type: cell-based
Settings: for ADCC efficacy: maximum signal:background (S/B)
Source text: The compounds described herein have been characterized in an ADCC reporter assay (see Section 1.2 ADCC reporter for protocol). […] Furthermore, the assay also confirms that this formed complex can engage and activate the Fc receptors on immune cells. Lastly, the assay provides both potency (EC50) and efficacy (signal to background ratio) for each compound in a dose dependant manner.
This assay has four components • 1) Heterobivalent Compound consisting of a targeting ligand and a hapten connected by a linker (ranging from 10 uM-1 pM) • 2) A hapten antibody with functional Fc domain (typical concentrations are 0.01 ug/mL-200 ug/mL) • 3) Target cells—CHOK1 cells engineered to overexpress either CCR1, CCR2, or CCR3, or CEMNKR cells engineered to overexpress CCR5 (typically 1000-20,000 cells per well) • 4) Reporter cells—Jurkat cells engineered to express FcgRIIIa (ADCC reporter assay) and with a reporter gene (luciferase) under the control of the NFAT promoter (typically 3000-75,000 cells per well)
Reagents are combined in final volume of 20 uL in 384-well tissue culture treated plated.
All components are incubated together for ˜12-18 hours. Add BioGlo Detection reagent (from Promega) to lyse the cells and provide substrate for the luciferase reporter protein. Signal is measured on a microplate reader capable of measuring luminescence. Signal:Background is calculated by dividing the signal of a test well by the signal obtained when no compound is included in the assay. EC50 calculations were done using Graphpad Prism Software, specifically a nonlinear regression curve fit (Y=Bottom+(Top−Bottom)/(1+10^((Log EC50−X)*HillSlope)))

[1] = CHOK1 cells overexpressing CCR2, Jurkat FcgRIIIa NFAT-luciferase reporter cells, EC50 class
[2] = CHOK1 cells overexpressing CCR2
[3] = CHOK1 cells overexpressing CCR2, Jurkat FcgRIIIa NFAT-luciferase reporter cells, EC50 class, read-out: ADCC potency

T1 sequence (P41597 whole entry, species assumed): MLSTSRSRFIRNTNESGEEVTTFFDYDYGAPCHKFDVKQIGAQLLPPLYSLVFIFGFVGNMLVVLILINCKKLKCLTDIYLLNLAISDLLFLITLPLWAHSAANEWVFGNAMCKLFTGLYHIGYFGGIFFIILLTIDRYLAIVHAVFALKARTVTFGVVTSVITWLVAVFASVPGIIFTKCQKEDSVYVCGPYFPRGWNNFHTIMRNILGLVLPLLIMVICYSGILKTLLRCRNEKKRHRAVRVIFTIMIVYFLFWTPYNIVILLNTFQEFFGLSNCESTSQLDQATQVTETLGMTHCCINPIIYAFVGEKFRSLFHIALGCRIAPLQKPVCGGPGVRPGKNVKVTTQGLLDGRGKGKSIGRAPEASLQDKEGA

Structure (SMILES) | ADCC potency [1] | ADCC efficacy [2] | EC50 [3] | EC50
O=C(NCC(=O)N1CC[C@H](NC2CCC(O)(c3ccc(-c4ncccn4)cn3)CC2)C1)c1cc(OCCOCCOCCOCCOCCOCCOCCOCCOCCOCCNc2ccc([N+](=O)[O-])cc2[N+](=O)[O-])cc(C(F)(F)F)c1 (single isomer, unassigned) [Compound 17] | +++ (pEC50 ≥ 9 = +++) | +++^e (Maximum Signal:Background > 10 = +++) |  | 
Cc1ccc2c(c1)NC[C@]21CCN(C[C@@H](O)C2CCN(C(=O)/C=C/c3cc(F)cc(OCCOCCOCCOCCOCCOCCOCCOCCOCCOCCNc4ccc([N+](=O)[O-])cc4[N+](=O)[O-])c3)CC2)C[C@H]1C [Compound 9, (E)-1-(4-((S)-2-((3S,3′S)-3′,6-Dimethylspiro[indoline-3,4′-piperidin]-1′-yl)-1-hydroxyethyl)piperidin-1-yl)-3-(3-((29-((2,4-dinitrophenyl)amino)-3,6,9,12,15,18,21,24,27-nonaoxanonacosyl)oxy)-5-fluorophenyl)prop-2-en-1-one] |  | +++^e (Maximum Signal:Background > 10 = +++) | < 0.001 µM | 
Cc1ccc2c(c1)NC[C@]21CCN(C[C@@H](O)C2CCN(C(=O)c3cc4ccc(Oc5ccc(C(=O)N6CCN(CCCNc7ccc([N+](=O)[O-])cc7[N+](=O)[O-])CC6)cc5)cc4[nH]3)CC2)C[C@H]1C [Compound 15, (4-((S)-2-((3S,3′S)-3′,6-Dimethylspiro[indoline-3,4′-piperidin]-1′-yl)-1-hydroxyethyl)piperidin-1-yl)(6-(4-(4-(3-((2,4-dinitrophenyl)amino)propyl)piperazine-1-carbonyl)phenoxy)-1H-indol-2-yl)methanone] |  | +++^e (Maximum Signal:Background > 10 = +++) | 0.001 to 0.01 µM | 
Cc1ccc2c(c1)NC[C@]21CCN(C[C@@H](O)C2CCN(c3ncc(-c4cccc(C(=O)NCCOCCOCCOCCOCCOCCOCCOCCOCCOCCNc5ccc([N+](=O)[O-])cc5[N+](=O)[O-])c4)o3)CC2)C[C@H]1C [Compound 11, 3-(2-(4-((S)-2-((3S,3′S)-3′,6-Dimethylspiro[indoline-3,4′-piperidin]-1′-yl)-1-hydroxyethyl)piperidin-1-yl)oxazol-5-yl)-N-(29-((2,4-dinitrophenyl)amino)-3,6,9,12,15,18,21,24,27-nonaoxanonacosyl)benzamide] |  | +++^e (Maximum Signal:Background > 10 = +++) | 0.01 to 0.1 µM | 
CC(C)[C@]1(C(=O)N2CCc3nc(CCCCOc4cccc(C(=O)NCCOCCOCCOCCOCCOCCOCCOCCOCCOCCNc5ccc([N+](=O)[O-])cc5[N+](=O)[O-])c4)c(C(F)(F)F)cc3C2)CC[C@@H](NC2CCOCC2)C1 [Compound 7, N-(29-((2,4-dinitrophenyl)amino)-3,6,9,12,15,18,21,24,27-nonaoxanonacosyl)-3-(4-(6-((1S,3R)-1-isopropyl-3-((tetrahydro-2H-pyran-4-yl)amino)cyclopentanecarbonyl)-3-(trifluoromethyl)-5,6,7,8-tetrahydro-1,6-naphthyridin-2-yl)butoxy)benzamide] |  | +++^e (Maximum Signal:Background > 10 = +++) | < 0.001 µM | 
Cc1ccc2c(c1)NC[C@]21CCN(C[C@@H](O)C2CCN(C(=O)c3cc4ccc(Oc5ccc(C(=O)NCCOCCOCCOCCOCCOCCOCCOCCOCCOCCNc6ccc([N+](=O)[O-])cc6[N+](=O)[O-])cc5)cc4[nH]3)CC2)C[C@H]1C [Compound 12, 4-((2-(4-((S)-2-((3S,3′S)-3′,6-Dimethylspiro[indoline-3,4′-piperidin]-1′-yl)-1-hydroxyethyl)piperidine-1-carbonyl)-1H-indol-6-yl)oxy)-N-(29-((2,4-dinitrophenyl)amino)-3,6,9,12,15,18,21,24,27-nonaoxanonacosyl)benzamide] |  | +++^e (Maximum Signal:Background > 10 = +++) | < 0.001 µM | 
CC(C)(C)N1CCNC(C(=O)N2CCN(C(=O)Nc3ccc(Cl)c(F)c3)C(CCOC(=O)NCCOCCOCCOCCOCCOCCOCCOCCOCCOCCNc3ccc([N+](=O)[O-])cc3[N+](=O)[O-])C2)C1 (single isomer, unassigned) [Compound 19, 2-(4-(4-(Tert-butyl)piperazine-2-carbonyl)-1-((4-chloro-3-fluorophenyl)carbamoyl)piperazin-2-yl)ethyl (29-((2,4-dinitrophenyl)amino)-3,6,9,12,15,18,21,24,27-nonaoxanonacosyl)carbamate] |  | +++^e (Maximum Signal:Background > 10 = +++) | < 0.001 µM | 
Cc1ccc2c(c1)NC[C@]21CCN(C[C@@H](O)C2CCN(C(=O)c3cc4cc(OCCOCCOCCOCCNC(=O)CCC(=O)NCCOCCOCCOCCNc5ccc([N+](=O)[O-])cc5[N+](=O)[O-])ccc4[nH]3)CC2)C[C@H]1C [Compound 8, N1-(2-(2-(2-(2-((2-(4-((S)-2-((3S,3′S)-3′,6-Dimethylspiro[indoline-3,4′-piperidin]-1′-yl)-1-hydroxyethyl)piperidine-1-carbonyl)-1H-indol-5-yl)oxy)ethoxy)ethoxy)ethoxy)ethyl)-N4-(2-(2-(2-(2-((2,4-dinitrophenyl)amino)ethoxy)ethoxy)ethoxy)ethyl)succinamide] |  | +++^e (Maximum Signal:Background > 10 = +++) | 0.01 to 0.1 µM | 
CC(C)[C@]1(C(=O)N2CCc3nc(CCCCOc4ccc(C(=O)NCCOCCOCCOCCOCCOCCOCCOCCOCCOCCNc5ccc([N+](=O)[O-])cc5[N+](=O)[O-])cc4)c(C(F)(F)F)cc3C2)CC[C@@H](NC2CCOCC2)C1 [Compound 6, N-(29-((2,4-dinitrophenyl)amino)-3,6,9,12,15,18,21,24,27-nonaoxanonacosyl)-4-(4-(6-((1S,3R)-1-isopropyl-3-((tetrahydro-2H-pyran-4-yl)amino)cyclopentanecarbonyl)-3-(trifluoromethyl)-5,6,7,8-tetrahydro-1,6-naphthyridin-2-yl)butoxy)benzamide] |  | +++^e (Maximum Signal:Background > 10 = +++) | < 0.001 µM | 
Cc1ccc2c(c1)NC[C@]21CCN(C[C@@H](O)C2CCN(C(=O)c3cc4ccc(OCCOCCOCCOCCNC(=O)CCC(=O)NCCOCCOCCOCCNc5ccc([N+](=O)[O-])cc5[N+](=O)[O-])cc4[nH]3)CC2)C[C@H]1C [Compound 13, N1-(2-(2-(2-(2-((2-(4-((S)-2-((3S,3′S)-3′,6-Dimethylspiro[indoline-3,4′-piperidin]-1′-yl)-1-hydroxyethyl)piperidine-1-carbonyl)-1H-indol-6-yl)oxy)ethoxy)ethoxy)ethoxy)ethyl)-N4-(2-(2-(2-(2-((2,4-dinitrophenyl)amino)ethoxy)ethoxy)ethoxy)ethyl)succinamide] |  | +++^e (Maximum Signal:Background > 10 = +++) |  | 0.001 to 0.01 µM
O=C(NCC(=O)N1CC[C@H](NC2CCC(O)(c3ccc(-c4ncccn4)cn3)CC2)C1)c1cc(OCCOCCOCCOCCOCCOCCOCCOCCOCCOCCNc2ccc([N+](=O)[O-])cc2[N+](=O)[O-])cc(C(F)(F)F)c1 (single isomer, unassigned) [Compound 16] | +++ (pEC50 ≥ 9 = +++) | ++^e (>5 = ++) |  | 
Cc1ccc2c(c1)NC[C@]21CCN(C[C@@H](O)C2CCN(C(=O)c3cc4cc(Oc5ccc(C(=O)NCCOCCOCCOCCOCCOCCOCCOCCOCCOCCNc6ccc([N+](=O)[O-])cc6[N+](=O)[O-])cc5)ccc4[nH]3)CC2)C[C@H]1C [Compound 10, 4-((2-(4-((S)-2-((3S,3′S)-3′,6-Dimethylspiro[indoline-3,4′-piperidin]-1′-yl)-1-hydroxyethyl)piperidine-1-carbonyl)-1H-indol-5-yl)oxy)-N-(29-((2,4-dinitrophenyl)amino)-3,6,9,12,15,18,21,24,27-nonaoxanonacosyl)benzamide] |  | +++^e (Maximum Signal:Background > 10 = +++) | 0.001 to 0.01 µM | 
Cc1ccc2c(c1)NC[C@]21CCN(C[C@@H](O)C2CCN(C(=O)c3cc4c(OCCOCCOCCOCCNC(=O)CCC(=O)NCCOCCOCCOCCNc5ccc([N+](=O)[O-])cc5[N+](=O)[O-])cccc4[nH]3)CC2)C[C@H]1C [Compound 14, N1-(2-(2-(2-(2-((2-(4-((S)-2-((3S,3′S)-3′,6-dimethylspiro[indoline-3,4′-piperidin]-1′-yl)-1-hydroxyethyl)piperidine-1-carbonyl)-1H-indol-4-yl)oxy)ethoxy)ethoxy)ethoxy)ethyl)-N4-(2-(2-(2-(2-((2,4-dinitrophenyl)amino)ethoxy)ethoxy)ethoxy)ethyl)succinamide] |  | ++^e (>5 = ++) |  | 0.1 to 1 µM
